Data taken from US20240116985A1, “STAPLED PEPTIDES AND METHODS THEREOF” (priority 2020, published 2024).
≈ marks a conversion by molar mass, not a printed value. Starred links: 1 amine or outer side, 2 acyl side, 3 side chain; linkers in the order of their positions; H or OH if unused. Non-standard residues stand in square brackets, D forms with d. Residues, ends and D or L forms follow the SMILES beside them. X1 = C=CCOC(=O)N1CC[C@@](N[*:1])(C(=O)[*:2])C1; X2 = C=CCCCC(CCCC=C)(N[*:1])C(=O)[*:2]; Bta = N[C@@H](Cc1csc2ccccc12)C(=O)O; αAllylPro = C=CC[C@@]1(C(=O)O)CCCN1; R8 = C=CCCCCCC[C@@](C)(N)C(=O)O; S8 = C=CCCCCCC[C@](C)(N)C(=O)O

Legend:
[1] = CHI Log D procedure; type: physicochemical; settings: for CHI Log D: pH 7.4; for chromatographic logD: pH 7.4, CHI Log D
[2] = Solubility in PBS; type: physicochemical
Method in brief: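 HPLC quantitation of peptide remaining in the PBS supernatant after ultracentrifugation, referenced to a 50 μM solution in DMSO.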

| SMILES | CHI Log D [1] | Solubility [2] | chromatographic logD [1] | solubility at 15 min ([2]; Solubility (uM)) |
| --- | --- | --- | --- | --- |
| CC(=O)N1CCC[C@]12CC=CCCCC1(CCCC=CCCCCCC[C@@](C)(C(=O)N[C@@H](Cc3ccccc3)C(=O)N[C@@H](Cc3csc4ccccc34)C(=O)N[C@@H](CCC(N)=O)C(N)=O)NC(=O)[C@H](CCC(N)=O)NC(=O)[C@H](Cc3ccccc3)NC(=O)[C@H](C)NC(=O)[C@H](C)NC(=O)[C@H](CCC(=O)O)NC(=O)[C@H](CC(=O)O)NC1=O)NC(=O)[C@H](C)NC(=O)[C@H](Cc1nn[nH]n1)NC2=O (stereo partly drawn) [I-417, Ac-PL3-tetz-Ala-B5-Asp-Glu-Ala-Ala-Phe-Gln-S8-Phe-BztA-Gln-NH2] | 2.085 | 30 µM (≈ 56 µg/mL) |  |  |
| CC(=O)N1CCC[C@]12CC=CCCCC1(CCCC=CCCCCCC[C@@](C)(C(=O)N[C@@H](Cc3cn(C)cn3)C(=O)N[C@@H](Cc3csc4ccccc34)C(=O)N[C@@H](CCC(N)=O)C(N)=O)NC(=O)[C@H](CC(N)=O)NC(=O)[C@H](Cc3ccccc3)NC(=O)[C@H](C)NC(=O)[C@H](C)NC(=O)[C@H](CCC(=O)O)NC(=O)[C@H](CC(=O)O)NC1=O)NC(=O)[C@H](C)NC(=O)[C@H](CC(=O)O)NC2=O (stereo partly drawn) [I-439, Ac-PL3-Asp-Ala-B5-Asp-Glu-Ala-Ala-Phe-Asn-S8-1meH-BztA-Gln-NH2] | 1.408 | 50 µM (≈ 91.6 µg/mL) |  |  |
| CC(=O)N1CCC[C@]12CC=CCCCC1(CCCC=CCCCCCC[C@@](C)(C(=O)N[C@@H](Cc3cn(C)cn3)C(=O)N[C@@H](Cc3csc4ccccc34)C(=O)N[C@@H](CCC(N)=O)C(N)=O)NC(=O)[C@H](CC(N)=O)NC(=O)[C@H](Cc3ccccc3)NC(=O)[C@H](C)NC(=O)[C@H](C)NC(=O)[C@H](CCC(=O)O)NC(=O)[C@H](CC(=O)O)NC1=O)NC(=O)[C@H](C)NC(=O)[C@H](CC(=O)O)NC2=O (stereo partly drawn) [I-440, Ac-PL3-Asp-Ala-B5-Asp-Glu-Ala-Ala-Phe-Asn-S8-1meH-BztA-Gln-NH2] | 1.613 | 50 µM (≈ 91.6 µg/mL) |  |  |
| CC(=O)N1CCC[C@]12CC=CCCCC1(CCCC=CCCCCCC[C@@](C)(C(=O)N[C@@H](Cc3cccc(F)c3)C(=O)N[C@@H](Cc3c[nH]c4ccccc34)C(=O)N[C@@H](CCC(N)=O)C(N)=O)NC(=O)[C@H](CCC(N)=O)NC(=O)[C@H](Cc3ccsc3)NC(=O)[C@H](C)NC(=O)[C@H](C)NC(=O)[C@H](CCC(=O)O)NC(=O)[C@H](CC(=O)O)NC1=O)NC(=O)[C@H](C)NC(=O)[C@H](CC(=O)O)NC2=O (stereo partly drawn) [I-451, Ac-PL3-Asp-Ala-B5-Asp-Glu-Ala-Ala-3Thi-Gln-S8-3FF-Trp-Gln-NH2] | 1.88 | 50 µM (≈ 92.4 µg/mL) |  |  |
| C=CC(=O)NC[C@H](NC(=O)[C@]1(C)CCCCCCC=CCCCC2(CCCC=CC[C@]3(CCCN3C(C)=O)C(=O)N[C@@H](CC(=O)O)C(=O)N[C@@H]([C@@H](C)CC)C(=O)N2)C(=O)N[C@@H](CC(=O)O)C(=O)N[C@@H](CC(=O)O)C(=O)N[C@@H](C)C(=O)N[C@@H](C)C(=O)N[C@@H](Cc2ccccc2)C(=O)N[C@@H](CCC(N)=O)C(=O)N1)C(=O)N[C@@H](Cc1csc2ccccc12)C(=O)N[C@@H](CCC(N)=O)C(N)=O (stereo partly drawn) [I-483, Ac-PL3-Asp-Ile-B5-Asp-Asp-Ala-Ala-Phe-Gln-S8-[Acryl]Dap-BztA-Gln-NH2] | 1.845 | 43 µM (≈ 80.1 µg/mL) |  |  |
| C=CC(=O)NC[C@H](NC(=O)[C@]1(C)CCCCCCC=CCCCC2(CCCC=CC[C@]3(CCCN3C(C)=O)C(=O)N[C@@H](CC(=O)O)C(=O)N[C@@H]([C@@H](C)CC)C(=O)N2)C(=O)N[C@@H](CC(=O)O)C(=O)N[C@@H](CC(=O)O)C(=O)N[C@@H](C)C(=O)N[C@@H](C)C(=O)N[C@@H](Cc2ccccc2)C(=O)N[C@@H](CCC(N)=O)C(=O)N1)C(=O)N[C@@H](Cc1csc2ccccc12)C(=O)N[C@@H](CCC(N)=O)C(N)=O (stereo partly drawn) [I-484, Ac-PL3-Asp-Ile-B5-Asp-Asp-Ala-Ala-Phe-Gln-S8-[Acryl]Dap-BztA-Gln-NH2] | 1.863 | 45 µM (≈ 83.8 µg/mL) |  |  |
| CC(=O)N1CCC[C@]12CC=CCCCC1(CCCC=CCCCCCC[C@@](C)(C(=O)N[C@@H](Cc3ccccc3)C(=O)N[C@@H](Cc3csc4ccccc34)C(=O)N[C@@H](CCC(N)=O)C(N)=O)NC(=O)[C@H](CCC(N)=O)NC(=O)[C@H](Cc3ccccc3)NC(=O)[C@H](C)NC(=O)[C@H](C)NC(=O)[C@H](CCC(=O)O)NC(=O)[C@H](CCO)NC1=O)NC(=O)[C@H](C)NC(=O)[C@H](CC(=O)O)NC2=O (stereo partly drawn) [I-496, Ac-PL3-Asp-Ala-B5-Hse-Glu-Ala-Ala-Phe-Gln-S8-Phe-BztA-Gln-NH2] | 2.456 | 41 µM (≈ 74.9 µg/mL) |  |  |
| CC(=O)N1CCC[C@]12CC=CCCCC1(CCCC=CCCCCCC[C@@](C)(C(=O)N[C@@H](Cc3ccccc3)C(=O)N[C@@H](Cc3csc4ccccc34)C(=O)N[C@@H](CCC(N)=O)C(N)=O)NC(=O)[C@H](CCC(N)=O)NC(=O)[C@H](Cc3ccccc3)NC(=O)[C@H](C)NC(=O)[C@H](C)NC(=O)[C@H](CCC(=O)O)NC(=O)[C@H](CCO)NC1=O)NC(=O)[C@H](C)NC(=O)[C@H](CC(=O)O)NC2=O (stereo partly drawn) [I-497, Ac-PL3-Asp-Ala-B5-Hse-Glu-Ala-Ala-Phe-Gln-S8-Phe-BztA-Gln-NH2] | 2.6 | 29 µM (≈ 53 µg/mL) |  |  |
| CC(=O)N1CCC[C@]12CC=CCCCC1(CCCC=CCCCCCC[C@@](C)(C(=O)N[C@@H](Cc3ccccc3)C(=O)N[C@@H](Cc3csc4ccccc34)C(=O)N[C@@H](CCC(N)=O)C(N)=O)NC(=O)[C@H](CCC(N)=O)NC(=O)[C@H](Cc3ccccc3)NC(=O)[C@H](C)NC(=O)[C@H](C)NC(=O)[C@H](CCC(=O)O)NC(=O)[C@H](CCO)NC1=O)NC(=O)[C@H](C)NC(=O)[C@H](CC(=O)O)NC2=O (stereo partly drawn) [I-498, Ac-PL3-Asp-Ala-B5-Hse-Glu-Ala-Ala-Phe-Gln-S8-Phe-BztA-Gln-NH2] | 2.637 | 42 µM (≈ 76.7 µg/mL) |  |  |
| CC(=O)N1CCC[C@]12CC=CCCCC1(CCCC=CCCCCCC[C@@](C)(C(=O)N[C@@H](Cc3ccccc3)C(=O)N[C@@H](Cc3csc4ccccc34)C(=O)N[C@@H](CCC(N)=O)C(N)=O)NC(=O)[C@H](CC(N)=O)NC(=O)[C@H](Cc3ccccc3)NC(=O)[C@H](C)NC(=O)[C@H](C)NC(=O)[C@H](CCC(=O)O)NC(=O)[C@H](CNS(C)(=O)=O)NC1=O)NC(=O)[C@H](C)NC(=O)[C@H](CC(=O)O)NC2=O (stereo partly drawn) [I-529, Ac-PL3-Asp-Ala-B5-[MeSO2]Dap-Glu-Ala-Ala-Phe-Asn-S8-Phe-BztA-Gln-NH2] | 2.854 | 50 µM (≈ 93.8 µg/mL) |  |  |
| CC(=O)N1CCC[C@]12CC=CCCCC1(CCCC=CCCCCCC[C@@](C)(C(=O)N[C@@H](Cc3ccccc3)C(=O)N[C@@H](Cc3csc4ccccc34)C(=O)N[C@@H](CCC(N)=O)C(N)=O)NC(=O)[C@H](CC(N)=O)NC(=O)[C@H](Cc3ccccc3)NC(=O)[C@H](C)NC(=O)[C@H](C)NC(=O)[C@H](CCC(=O)O)NC(=O)[C@H](CNS(C)(=O)=O)NC1=O)NC(=O)[C@H](C)NC(=O)[C@H](CC(=O)O)NC2=O (stereo partly drawn) [I-530, Ac-PL3-Asp-Ala-B5-[MeSO2]Dap-Glu-Ala-Ala-Phe-Asn-S8-Phe-BztA-Gln-NH2] | 2.935 | 50 µM (≈ 93.8 µg/mL) |  |  |
| CC(=O)N1CCC[C@]12CC=CCCCC1(CCCC=CCCCCCC[C@@](C)(C(=O)N[C@@H](Cc3ccccc3)C(=O)N[C@@H](Cc3csc4ccccc34)C(=O)N[C@@H](CCC(N)=O)C(N)=O)NC(=O)[C@H](CC(N)=O)NC(=O)[C@H](Cc3ccccc3)NC(=O)[C@H](C)NC(=O)[C@H](C)NC(=O)[C@H](CCC(=O)O)NC(=O)[C@H](CCNS(C)(=O)=O)NC1=O)NC(=O)[C@H](C)NC(=O)[C@H](CC(=O)O)NC2=O (stereo partly drawn) [I-531, Ac-PL3-Asp-Ala-B5-[MeSO2]Dab-Glu-Ala-Ala-Phe-Asn-S8-Phe-BztA-Gln-NH2] | 2.794 | 43 µM (≈ 81.3 µg/mL) |  |  |
| CC(=O)N1CCC[C@]12CC=CCCCC1(CCCC=CCCCCCC[C@@](C)(C(=O)N[C@@H](Cc3ccccc3)C(=O)N[C@@H](Cc3csc4ccccc34)C(=O)N[C@@H](CCC(N)=O)C(N)=O)NC(=O)[C@H](CC(N)=O)NC(=O)[C@H](Cc3ccccc3)NC(=O)[C@H](C)NC(=O)[C@H](C)NC(=O)[C@H](CCC(=O)O)NC(=O)[C@H](CCNS(C)(=O)=O)NC1=O)NC(=O)[C@H](C)NC(=O)[C@H](CC(=O)O)NC2=O (stereo partly drawn) [I-532, Ac-PL3-Asp-Ala-B5-[MeSO2]Dab-Glu-Ala-Ala-Phe-Asn-S8-Phe-BztA-Gln-NH2] | 2.858 | 42 µM (≈ 79.4 µg/mL) |  |  |
| C=CCCCCCC[C@](C)(NC(=O)[C@H](CCC(N)=O)NC(=O)[C@H](Cc1ccccc1)NC(=O)[C@H](C)NC(=O)[C@H](C)NC(=O)[C@H](CC(=O)O)NC(=O)[C@H](CC(=O)O)NC(=O)C(CCCC=C)(CCCC=C)NC(=O)[C@H](C)NC(=O)[C@H](CC(=O)O)NC(=O)[C@]1(CC=C)CCCN1C(C)=O)C(=O)N[C@@H](Cc1ccccc1)C(=O)N[C@@H](Cc1csc2ccccc12)C(=O)N[C@@H](CCC(N)=O)C(N)=O [I-578, Ac-PL3-Asp-Ala-B5-Asp-Asp-Ala-Ala-Phe-Gln-S8-Phe-BztA-Gln-NH2] (Ac-[αAllylPro]DA[X2]DDAAFQ[S8]F[Bta]Q-NH2) |  | 50 µM (≈ 94.2 µg/mL) | 2.26 |  |
| C=CCCCCCC[C@@](C)(NC(=O)[C@H](C)NC(=O)[C@H](CC(=O)O)NC(=O)[C@H](Cc1ccccc1)NC(C)=O)C(=O)N[C@@H](CC(=O)O)C(=O)N[C@@H](CC(=O)O)C(=O)N[C@@H](C)C(=O)N[C@@H](C)C(=O)N[C@@H](Cc1ccccc1)C(=O)N[C@@H](CCC(N)=O)C(=O)N[C@@]1(C(=O)N[C@@H](Cc2ccccc2)C(=O)N[C@@H](Cc2c[nH]c3ccccc23)C(=O)N[C@@H](CCC(N)=O)C(N)=O)CCN(C(=O)OCC=C)C1 [I-579, Ac-Phe-Asp-Ala-R8-Asp-Asp-Ala-Ala-Phe-Gln-PyrS-Phe-Trp-Gln-NH2] (Ac-FDA[R8]DDAAFQ[X1]FWQ-NH2) |  |  | 1.51 | 45 µM (≈ 84.6 µg/mL) |
